The subject of assay [1] is Escherichia coli (E. coli) CCM 3988. The assay is described as follows: Antibacterial activity, macrodilution method. The class given is cell-based. To be noted: free ligands.
Procedure: (§3) Cultures of bacteria (in Mueller-Hinton broth, MHB) and yeasts (in Sabouraud’s growth medium, SB) were incubated under shaking (250 rpm) at 37 °C. The growth of bacteria and yeasts was evaluated by measuring the absorbance of the growing cultures (A550) until the cultures reached the stationary growth phase. […] The final concentration of DMSO never exceeded 1.0 vol. % in the control or treated samples. […] The IC50 and MIC90 with respect to MIC80 values were evaluated from toxicity curves.
Assay [2] has as its system Staphylococcus aureus CCM 3953. The assay is described as follows: Antibacterial activity, macrodilution method. It is filed as cell-based. The note with it: S. aureus; free ligands.
Procedure: as §3
Assay [3] relates to methicillin-resistant Staphylococcus aureus L12. The experiment in a line: Antibacterial activity, macrodilution method. The class given is cell-based. The note with it: S. aureus L12; free ligands.
Procedure: as §3
Assay [4] deals with Staphylococcus epidermidis CCM 7221. The experiment in a line: Antibacterial activity, macrodilution method. To be noted: S.epidermidis; free ligands. It is filed as cell-based.
Procedure: as §3
Assay [5] has as its system Candida parapsilosis ATCC 22019. The assay is described as follows: Antifungal activity (yeast), macrodilution method. To be noted: C. parapsilosis. It is filed as cell-based.
Procedure: as §3
In assay [6] the test system is Candida albicans SC 5314. The assay is described as follows: Antifungal activity (yeast), macrodilution method. To be noted: C. albicans. The class given is cell-based.
Procedure: (§4) Cultures of bacteria (in Mueller-Hinton broth, MHB) and yeasts (in Sabouraud’s growth medium, SB) were incubated under shaking (250 rpm) at 37 °C. The growth of bacteria and yeasts was evaluated by measuring the absorbance of the growing cultures (A550) until the cultures reached the stationary growth phase. […] During culturing, the diameters of growing fungal colonies were measured at regular intervals [71, 72]. […] The final concentration of DMSO never exceeded 1.0 vol. % in the control or treated samples. […] The IC50 and MIC90 with respect to MIC80 values were evaluated from toxicity curves.
The subject of assay [7] is Rhizopus oryzae CCM F-8284. The assay is described as follows: Antifungal activity (filamentous fungi), macrodilution on solidified PDA. The class given is cell-based.
Procedure: as §4
Assay [8] deals with Alternaria alternata CCM F-128. The assay is described as above. The class given is cell-based. To be noted: A. alternata, read-out: IC50 and MIC100 (class symbol).
Procedure: as §4
Assay [9] relates to A.flavus. The experiment in a line: Antifungal activity (filamentous fungi). It is filed as cell-based. The note with it: read-out: IC50 and MIC100 (class symbol).
Procedure: as §4
The subject of assay [10] is Microsporum gypseum CCM F-8342. The assay is described as follows: Antifungal activity (filamentous fungi), macrodilution on solidified PDA. It is filed as cell-based. The note with it: M.gypseum, read-out: IC50 and MIC100 (class symbol).
Procedure: as §4
The test system of assay [11] is HeLa. The experiment in a line: MTS antiproliferative assay. It is filed as cell-based, human. To be noted: 72 h. The method, then:
(§1) After 72 h of incubation, 10 µL of MTS was added to each well. […] IC50 values were calculated from MTS analyses.
A general note: Tetrazolium assays rely on reduction of a dye to a coloured formazan, in cell work by metabolically active cells.

The test system of assay [12] is MCF-7. The assay is described as follows: MTS antiproliferative assay. The class given is cell-based, human. To be noted: 72 h. The method, then: as §1
Assay [13] has as its system BLM. The experiment in a line: MTS antiproliferative assay. The note with it: BLM; MTS, 72 h. It is filed as cell-based, human. On the procedure: (§2) Cells were maintained in standard conditions with an atmosphere containing 5% CO2 at 37 °C.
as §1

In assay [14] the test system is HCT116. The experiment in a line: MTS antiproliferative assay. The class given is cell-based, human. To be noted: 72 h. The method, then:
as §2, §1

Assay [15] has as its system Jurkat. The assay is described as follows: MTS antiproliferative assay. The class given is cell-based, human. To be noted: 72 h. On the procedure:
as §2, §1

Assay [16] deals with MDA-MB-231. The experiment in a line: MTS antiproliferative assay. It is filed as cell-based, human. To be noted: 72 h. The method, then: as §2, §1
The subject of assay [17] is BJ-5ta. The assay is described as follows: MTS assay on fibroblasts. The class given is cell-based. The note with it: BJ-5ta human skin fibroblasts, 72 h. On the procedure: as §1
Where [18] appears, read: read-out: IC50 and MIC100 (class symbol).

Read-outs that look alike come from different tables or passages of the source. Where a SMILES comes first, the peptide text is derived from it.

As usually defined, the IC50 is the midpoint of a concentration-inhibition curve. Take `C[C@H](NC(=O)CN)C(=O)O` [HGlyAla, Glycyl-L-Alanine, reference compound] (H-Gly-Ala-OH): the “IC50 and MIC90 (class symbol)” value in assay [1] was “N (N- not active IC50 and MIC90 values > 2 mmol.l-1)”; in assay [2], “N (N- not active IC50 and MIC90 values > 2 mmol.l-1)”; in assay [3], “N (N- not active IC50 and MIC90 values > 2 mmol.l-1)”; in [4] it was “N (N- not active IC50 and MIC90 values > 2 mmol.l-1)”. Also, the “IC50 and MIC80 (class symbol)” value in assay [5] is “N (N- not active IC50 and MIC values > 2 mmol.l-1)”; in assay [6], “N (N- not active IC50 and MIC values > 2 mmol.l-1)”. For the same compound, the IC50 in [7] (setting [18]) was above 2000 µM; in assay [8] it was above 2000 µM; in assay [9], above 2000 µM; in assay [10] it was above 2000 µM; in assay [11] it was above 300 µM; in assay [12], above 300 µM. Moreover, the IC50 in [13], in assay [14], in assay [15], in assay [16] and in [17] was above 300 µM throughout.

As to `N.N.[Cl][Pt][Cl]` [cisPt, cisplatin], the IC50 in [11] was 35.4 µM; in [12], 29.7 µM; in [13] it was 29.5 µM; in assay [14], 7.4 µM; in assay [15], 6.3 µM; in [16] it was 7.1 µM. Further, half-maximal inhibition in assay [17] (IC50) required 37.9 µM.

For `NCC(=O)O` [Gly, glycine, reference compound], the “IC50 and MIC90 (class symbol)” value in assay [1] is “N (N- not active IC50 and MIC90 values > 2 mmol.l-1)”; in assay [2] it was “N (N- not active IC50 and MIC90 values > 2 mmol.l-1)”; in [3] it was “N (N- not active IC50 and MIC90 values > 2 mmol.l-1)”; in assay [4] it was “N (N- not active IC50 and MIC90 values > 2 mmol.l-1)”. The “IC50 and MIC80 (class symbol)” value in assay [5] was “N (N- not active IC50 and MIC values > 2 mmol.l-1)”; in [6], “N (N- not active IC50 and MIC values > 2 mmol.l-1)”. For the same compound, the IC50 in assay [7] (setting [18]), in assay [8], in assay [9] and in [10] was above 2000 µM each time.

For the compound `O=[N+]([O-])[O-].[Ag+]` [AgNO3, silver(I) nitrate], the IC50 in [11] amounted to 45.3 µM; in assay [12] it was 13.2 µM; in assay [13], 31.5 µM; in [14], 21.8 µM; in assay [15], 6.6 µM; in assay [16] it was 25.9 µM. In [17], this compound returned an IC50 of 24.3 µM.

As to `NCC(=O)N[C@@H](CC(=O)O)C(=O)O` [H2GlyAsp, Glycyl-L-Aspartic acid, reference compound] (H-Gly-Asp-OH), the “IC50 and MIC90 (class symbol)” value in [1] was “N (N- not active IC50 and MIC90 values > 2 mmol.l-1)”; in [2], “N (N- not active IC50 and MIC90 values > 2 mmol.l-1)”; in assay [3], “N (N- not active IC50 and MIC90 values > 2 mmol.l-1)”; in assay [4], “N (N- not active IC50 and MIC90 values > 2 mmol.l-1)”. Also, the “IC50 and MIC80 (class symbol)” value was “N (N- not active IC50 and MIC values > 2 mmol.l-1)” in [5]; “N (N- not active IC50 and MIC values > 2 mmol.l-1)” in assay [6]. In addition, the IC50 is above 2000 µM in assay [7] (setting [18]); above 2000 µM in assay [8]; above 2000 µM in [9]; above 2000 µM in assay [10]; above 300 µM in assay [11]; above 300 µM in assay [12]. The IC50 in assay [13], in assay [14], in [15], in assay [16] and in assay [17] was above 300 µM in each case.

Take `NCC(=O)NCC(=O)O` [HGlyGly, Glycyl-L-Glycine, reference compound] (H-Gly-Gly-OH): the “IC50 and MIC90 (class symbol)” value in assay [1] was “N (N- not active IC50 and MIC90 values > 2 mmol.l-1)”; in assay [2], “N (N- not active IC50 and MIC90 values > 2 mmol.l-1)”; in assay [3], “N (N- not active IC50 and MIC90 values > 2 mmol.l-1)”; in assay [4], “N (N- not active IC50 and MIC90 values > 2 mmol.l-1)”. The “IC50 and MIC80 (class symbol)” value in assay [5] was “N (N- not active IC50 and MIC values > 2 mmol.l-1)”; in assay [6], “N (N- not active IC50 and MIC values > 2 mmol.l-1)”. Further, the IC50 in [7] (setting [18]), in [8], in assay [9] and in assay [10] was above 2000 µM each time.

On to `C[C@H](N)C(=O)O` [Ala, alanine, reference compound], for which the “IC50 and MIC90 (class symbol)” value in [1] was “N (N- not active IC50 and MIC90 values > 2 mmol.l-1)”; in assay [2] it was “N (N- not active IC50 and MIC90 values > 2 mmol.l-1)”; in [3], “N (N- not active IC50 and MIC90 values > 2 mmol.l-1)”; in [4], “N (N- not active IC50 and MIC90 values > 2 mmol.l-1)”. The “IC50 and MIC80 (class symbol)” value in [5] is “N (N- not active IC50 and MIC values > 2 mmol.l-1)”; in [6], “N (N- not active IC50 and MIC values > 2 mmol.l-1)”. The IC50 was above 2000 µM in assay [7] (Rhizopus arrhizus, CCMF8284, read-out: IC50 and MIC100 (class symbol)); above 2000 µM in assay [8] (Alternaria alternata, CCMF128); above 2000 µM in [9] (Aspergillus flavus); above 2000 µM in assay [10] (Nannizzia gypsea, CCMF8342).
